From patent US20260049101A1, “TOPICAL TREATMENT OF SKIN CANCER USING OLIGOPEPTIDES” (BACOBA AG, priority 2022, published 2026)
“Also recorded” adds a separate entry of the source. Where two headings read alike, the source gives them in different places. Square brackets hold non-standard residues; d marks the D form. Peptide text beside a SMILES is read from it. * marks the point of attachment. NH(1-CH2NMe2-cBu) = CN(C)CC1(N*)CCC1; Benzoyl(4-F) = O=C(c1ccc(F)cc1)*; hCha = N[C@@H](CCC1CCCCC1)C(=O)O; Aib = CC(C)(N)C(=O)O; βAla = NCCC(=O)O

Key:
[1] = system: B16-F10 mouse melanoma cells; assay: In vitro cell viability assay on B16-F10; assay type: cell-based; settings: B16-F10, 72 hours, resazurin
Protocol: In vitro cell viability assay methodology.
Half maximal inhibitory concentration (IC50) of the compounds was determined by seeding of cell culture into 96 well-plates (Cat #353072, Corning) and treated the day after with dose-escalating concentrations of the compounds (from 0.001 μM to 10 μM in RPMI-1640 complete) for 72 hours. 1000 cells were seeded per well. […] Triplicates were seeded for each condition. […] Vehicle treated wells were set to 100% viability.

[2] = system: cutaneous squamous cell carcinoma cell line A431_SCC; settings: read-out: IC50 A431
Protocol: (§1) For the maintenance of healthy human fibroblast cell culture Dulbecco's Modified Eagle Medium (DMEM, Cat #11966025, Gibco) supplemented with 10% heat-inactivated fetal bovine serum (Cat #S006420H01, BioWest) was used. For the maintenance of melanoma cell cultures RPMI-1640 (Cat #R0883, Gibco) supplemented with L-glutamine (Cat #25030-081, Gibco), 1 mM sodium pyruvate (Cat #S8636, Sigma-Aldrich), 10% heat-inactivated fetal bovine serum (Cat #S006420H01, BioWest) and 1% Penicillin-Streptomycin (Cat #15140122, Gibco) was used. The MyLa_CTCL cell cultures were cultivated in RPMI 1640 Medium (R0883) supplemented with 2 mM L-Glutamine (G7513), 10 U/ml IL-2 (H7041), 10 U/ml IL-4 (H7291) and 10% Human AB Serum (H4522). The cutaneous squamous cell carcinoma cell cultures A431 and SCC13 were cultivated in Dulbecco's Modified Eagle Medium (DMEM, Cat #11966025, Gibco) supplemented with 10% heat-inactivated fetal bovine serum (Cat #S006420H01, BioWest).
(§2) To determine the half maximal inhibitory concentrations (IC50's) serial dilution of compounds in DMSO to 1000× was performed (10 mM, 5 mM, 1 mM, 500 μM, 250 μM, 100 μM, 10 μM, 1 μM). 2 μl of these dilutions were further diluted in 198 μl growth medium with supplements, mixed well and 10 μl were further dispensed in triplicates to the 96-well plates containing cells in 90 μl.
(§3) For each drug condition and cell culture (for each row of the triplicate) a well with only RPMI-1640 complete/KSFM/DMEM media and one with media and DMSO were made as controls. DMSO was never at a higher concentration than 0.2% v/v. Triplicates were seeded for each condition. On the day of the assay, the medium was exchanged with cell culture media containing 0.1% of Resazurin-sodium salt stock solution (stock: 0.015 mg/ml, in PBS, Cat #R7017, Sigma-Aldrich). […] With a fluorescence-based plate reader (Infinite M200 Pro, Tecan, Switzerland) using excitations between […] and emissions at 590 nM the cell-culture plates were readout. The calculations and graphs are performed with GraphPad Prism program. Vehicle treated wells were set to 100% viability.

[3] = system: cutaneous squamous cell carcinoma cell line SCC13; settings: read-out: IC50 SCC13
Protocol: as §1, §2, §3

[4] = system: healthy skin dermal fibroblasts
Protocol: as §1, §2, §3

[5] = system: patient derived Basal Cell Carcinoma (BCC); assay type: cell-based, human; settings: 4 days, vs DMSO; for cell proliferation (Ki67): p<0.002
Source text: Tumour material was harvested from an infiltrative basal cell carcinoma (BCC) from a patient's nose.

[6] = system: B16F10 xenografts in C57BL/6 mice; assay: Histopathology (Ki67, TUNEL) of tumour slices from treated mice; assay type: in vivo, mouse; settings: daily 20 μl of 6027 vs vehicle treated controls; Two-Way ANOVA
Protocol: The read out was tumour volume measured three times a week expressed as tumour volume (in cm^3). Additionally, tumour samples were taken for histological analysis (Tumour FFPE) (2 mice per group).
Histopathology. After sacrifice non ulcerated tumours were sampled and paraffin blocks were prepared for immunohistochemistry stainings. […] During interphase, the Ki-67 antigen can be exclusively detected within the cell nucleus, whereas in mitosis most of the protein is relocated to the surface of the chromosomes. Ki-67 protein is present during all active phases of the cell cycle (G1, S, G2 and mitosis), but is absent in resting (quiescent) cells (G0). Cellular content of Ki-67 protein markedly increases during cell progression through S phase of the cell cycle.
TUNEL staining was used to determine areas of the tumour in which apoptosis was observed. Terminal deoxynucleotidyl transferase dUTP nick end labeling (TUNEL) staining is a method for detecting DNA fragmentation by labeling the 3′-hydroxyl termini in DNA double-stranded breaks generated during apoptosis.

[7] = Franz cells, 48 hours, donor 0.1% 6027 in DMSO, acceptor PBS + 2% Volpo; % of total 6027
Protocol: Pig ears from freshly slaughtered pigs, not older than 5 months and of both sexes, were obtained from the slaughterhouse Bell Schweiz AG (Basel, Switzerland). The ears were washed with tap water and the hairs were removed with an electric clipper. The skin was separated from the underlying cartilage from the backside of the ear by using a scalpel. After washing the skin again, it was stored in aluminium foil at −20° C. for no longer than one month.
After thawing the frozen skin, it was cut into adequate circles and the skin thickness was measured with a calliper. The skin was mounted into the FDC, tightly sealed with Teflon band and fixed in special designed holder. Then the acceptor compartment was equipped with a magnetic stirrer, filled with placebo formulation and equilibrated for one hour. To check the barrier integrity and to be sure that there are no invisible damages from skin preparation TEWL (transepidermal water loss) was measured. The FDCs were then placed in the water bath +32° C.±1 over a magnetic stirrer (500 rpm). Due to differences of each FDC, the skin application area for drug permeation was measured and calculated for each cell in advance. Consequently, the amount of 6027 for the donor compartment had to be adjusted for the infinite-dose experiment to 284.1 μL/cm^2.
At predefined time points 50 μL samples were taken from the acceptor compartment. The missing volume was replaced with the corresponding placebo formulation.
At the end of the permeation experiment and before reassembling the FDCs, the donor compartments were washed out with 10 mL ACN:H2O (55:45).
To extract 6027 from the skin, the frozen skin was cut into small pieces and grinded by a cryogenic grinder Freezer/Mill® from Spex SamplePrep (Metuchen, USA). The setting was 10 min precooling and a rate of 10 CPS for 4 cycles with 2 minutes. The resulting powder was resuspended in 2 mL ACN:H2O (55:45). […]
The concentrations of 6027 were determined by using HPLC-MS from Agilent Technologies. […]

## CC(C)C[C@H](NC(=O)[C@H](CCC1CCCCC1)NC(=O)[C@@H]1CCCN1C(=O)c1ccc(F)cc1)C(=O)NC(C)(C)C(=O)N[C@@H](CC(C)C)C(=O)N[C@@H](CC(C)C)C(=O)NC(C)(C)C(=O)NC(C)(C)C(=O)NCCC(=O)NC1(CN(C)C)CCC1 [Compound 6027, (2S)-2-[(2S)-4-cyclohexyl-2-{[(2S)-1-(4-fluorobenzoyl)pyrrolidin-2-yl]formamido}butanamido]-N-(1-{[(1S)-1-{[(1S)-1-({1-[(1-{[2-({1-[(dimethylamino)methyl]cyclobutyl}carbamoyl)ethyl]carbamoyl}-1-methylethyl)carbamoyl]-1-methylethyl}carbamoyl)-3-methylbutyl]carbamoyl}-3-methylbutyl]carbamoyl}-1-methylethyl)-4-methylpentanamide] ({Benzoyl(4-F)}-P[hCha]L[Aib]LL[Aib][Aib][βAla]-{NH(1-CH2NMe2-cBu)})
[1]
  IC50: 208 nM
[2]
  IC50: 70 nM
[3]
  IC50: 191 nM
[4]
  cytotoxicity against healthy skin dermal fibroblasts compared with skin cancer cell lines: less pronounced
[4]; read-out: IC50 Fibroblast, healthy skin dermal fibroblasts
  IC50: 3030 nM
[5]; 500 nM
  apoptotic cells (TUNEL staining): Significant increase
  cell proliferation (Ki67): significantly reduced
[5]; 1 μM
  cell proliferation (Ki67): significantly reduced
[5]
  apoptotic cells (TUNEL staining): Significant increase
[6]
  apoptotic cells (TUNEL) in tumour slices: significant increase of apoptotic cells; also recorded: Strong proapoptotic potential
  proliferative cells (Ki67) in tumour slices: significant decrease in proliferative cells
[7]
  Acceptor (%): 0.2%
  Donor (%): 79%
  Skin extraction (%) (skin penetration): 16%
